Data: US20230172962A1, “NRTIS, NRTI METABOLITES, AND NRTI ANALOGS FOR MACULAR DEGENERATION AND VIRAL INFECTIONS” (priority 2020, published 2023)

Assays:
[1] = tested on: retinal pigmented epithelium (RPE); test: Alu RNA-induced RPE degeneration, mouse model of atrophic (dry) macular degeneration; type: in vivo; conditions: mice, subretinal Alu RNA, intravitreous 1 mM GAZT or LSO, 2 mM AMT; ZO-1 RPE flat mounts 7 days after injection; FIG. 5
Method: (§1) Animals. Both male and female wild-type (WT) C57BL/6J mice (The Jackson Laboratory, Bar Harbor, Me., United States of America) between 6-10 weeks of age were used in this study. For all procedures, anesthesia was achieved by intraperitoneal injection of 100 mg/kg ketamine hydrochloride (Fort Dodge Animal Health, Overland Park, Kans., United States of America) and 10 mg/kg xylazine (Phoenix Scientific, Inc., St. Joseph, Mo., United States of America), and pupils were dilated with topical 1% tropicamide and 2.5% phenylephrine hydrochloride (Alcon Laboratories, Inc., Ft. Worth, Tex., United States of America). All animal experiments were approved by the Institutional Animal Care and Use Committees of the University of Virginia (Charlottesville, Va., United States of America) and was performed in accordance with the Statement for the Use of Animals in Ophthalmic and Visual Research of the Association for Research in Vision and Ophthalmology (Washington, D.C., United States of America).
(§2) Subretinal and intravitreous injections. Subretinal injections (SRI) (1 μl) and intravitreous injections (0.5 μl) in mice were performed using a 35-gauge needle (Ito Co.). In vitro transcribed Alu RNA (300 ng/μl) was injected into the subretinal space via SRI. 1 mM of 3′-Azido-3′-deoxythymidine β-D-glucuronide (GAZT; Cayman Chemical, Ann Arbor, Mich., United States of America), Lamivudine (R)-sulfoxide (LSO; Toronto Research Chemicals, Toronto, Canada) 2 mM of 3′-Amino-3′-deoxythymidine (AMT; Toronto Research Chemicals), or PBS was injected into the vitreous humor. Kamuvudines including but not limited to K-8 (2-Et-AZT) and K-9 (3-Me-3TC, a.k.a. 3-Me-lamivudine) were previously described (see U.S. Pat. No. 10,294,220, which is incorporated herein by reference in its entirety).

[2] = tested on: laser-induced choroidal neovascularization (CNV); test: Laser-induced choroidal neovascularization, mouse model of neovascular (wet) macular degeneration; type: in vivo; conditions: wild-type C57BL/6J mice, CNV lesion volume 7 days after laser; FIGS. 3A, 3B, 4
Method: as §1, §2
Choroidal neovascularization. Experimental choroidal neovascularization (CNV) was induced via laser photocoagulation (OcuLight GL, IRIDEX Corp., Mountain View, Calif., United States of America; 180 mW, 100 ms, 75 μm) in both eyes. The volume of the CNV lesions was measured after 7 days using a scanning laser confocal microscope (A1R Nikon confocal microscope system, Nikon USA, Melville, N.Y., United States of America) after 0.7% FITC-isolectin B4 staining (Vector Laboratories, Burlingame, Calif., United States of America, USA). The volume of each lesion was calculated using FIJI software (Schindelin et al., 2012).
The ability of NRTI, NRTI metabolites, and NRTI analogs to inhibit neovascular (wet) macular degeneration in a mouse model was tested. The results are shown in FIGS. 3A and 3B and in FIG. 4.

[3] = tested on: cleavage of pro-caspase-1 into active caspase-1 (NLRP3 inflammasome activation); test: Western blot of Alu RNA-induced caspase-1 cleavage (inflammasome activation) in BMDMs; type: cell-based; conditions: mouse BMDMs, 200 μM compound for 1 hour, then Alu RNA transfection overnight, FIG. 1
Method: (§3) Cell Stimulation. Bone marrow derived macrophages (BMDMs) were treated with 200 μM Zidovudine (AZT), GAZT, AMT, or LSO for 1 hour. Cells were transfected with Alu RNA overnight using Lipofectamine 3000 (Invitrogen) according to manufacturer's instructions.
Western blotting. Serum free media (1 mL) from stimulated BMDMs was transferred into fresh tubes and centrifuged for 10 min at 12,000 rpm at 4° C. 15 μl of 10% sodium deoxycholate was added to the supernatants, vortexed and kept on ice. 72 μl Trichloroacetic acid (Sigma-Aldrich, St. Louis,. Mo., United States of America) was subsequently added and the tubes were kept on ice overnight. After centrifugation for 30 min at 12,000 rpm at 4° C., the pellet was washed twice with 500 μl ice-cold acetone. The pellet was dried and boiled with LDS Sample Buffer and β-mercaptoethanol (Sigma-Aldrich). The precipitated protein was analyzed by immunoblotting.
The ability of NRTI and NRTI metabolites to inhibit inflammasome activation was tested by western blot.

IL-1β release = test: ELISA of Alu RNA-induced IL-1β release from BMDMs; type: cell-based; conditions: mouse BMDMs, 200 μM compound for 1 hour, then Alu RNA transfection overnight, FIG. 2
Method: as §3
Enzyme-linked immunosorbent assay (ELISA). 1.2 million cells/mL were seeded per well in 6-well cell culture dishes overnight and stimulated as mentioned above. Secreted mouse IL-1β in the medium were detected by ELISA (R&D Systems, Inc., Minneapolis, Minn., United States of America) according to the manufacturer's instructions.
The ability of NRTI and NRTI metabolites to inhibit IL-1β release was tested by ELISA.

[4] = Cataract formation after administration of fluoxetine preparations to the eye; type: in vivo
subretinal fibrosis = test: Subretinal fibrosis after laser injury / subretinal Alu RNA in mice; type: in vivo, mouse; conditions: wild-type mice, intravitreous injection, laser injury with subretinal Alu RNA, collagen type 1 staining after 7 days, FIGS. 6B
Method: as §1
Subretinal and intravitreous injections. Subretinal injections (SRI) (1 μl) and intravitreous injections (0.5 μl) in mice were performed using a 35-gauge needle (Ito Co.). […]
Subretinal fibrosis. […] After mounting in slides, the RPE flat mounts were imaged using a scanning laser confocal microscope (A1R Nikon confocal microscope system, Nikon USA) and the volume of each lesion was calculated by FIJI software. […]

cataract formation, share of subjects [4] | Structure (SMILES) | Alu RNA-induced RPE degeneration [1] | laser-induced choroidal neovascularization (CNV) volume [2] | Alu RNA-induced cleavage of pro-caspase-1 (50 kDa band) into active caspase-1 (20 kDa band) [3] | Alu RNA-induced IL-1β release (IL-1β release) | subretinal fibrosis volume (subretinal fibrosis)
 | Cc1cn([C@H]2C[C@H](N=[N+]=[N-])[C@@H](CO[C@@H]3O[C@H](C(=O)O)[C@@H](O)[C@H](O)[C@H]3O)O2)c(=O)[nH]c1=O [GAZT, 3′-Azido-3′-deoxythymidine β-D-glucuronide] | inhibited | inhibited | inhibited | inhibited | 
up to 50% | CNCCC(Oc1ccc(C(F)(F)F)cc1)c1ccccc1 (racemic) [racemic fluoxetine, fluoxetine] |  |  |  |  | 
 | Cc1cn([C@H]2C[C@H](N)[C@@H](CO)O2)c(=O)[nH]c1=O [AMT, 3′-Amino-3′-deoxythymidine] | inhibited | inhibited | inhibited | inhibited | 
 | CCOC[C@H]1O[C@@H](n2cc(C)c(=O)n(CC)c2=O)C[C@@H]1N=[N+]=[N-] [Kamuvudine K-8, 1-[(2R,4S,5S)-4-azide-5-(ethoxymethyl)oxolan-2-yl)-3-ethyl-5-methyl-1,2,3,4-etrahydropyrimidine-2,4-dione] |  | inhibited |  |  | reduced the volume of subretinal fibrosis
 | CCOCC1OC(n2ccc(N(CC)CC)nc2=O)CS1 (stereo not drawn) [Kamuvudine K-9] |  | inhibited |  |  | 
 | Nc1ccn([C@@H]2C[S@@+]([O-])[C@H](CO)O2)c(=O)n1 [LSO, Lamivudine (R)-sulfoxide] | inhibited |  |  | inhibited | 
 | Cc1cn([C@H]2C[C@H](N=[N+]=[N-])[C@@H](CO)O2)c(=O)[nH]c1=O [AZT, 1-[(2R,4S,5S)-4-Azido-5-(hydroxymethyl)oxolan-2-yl]-5-methylpyrimidine-2,4-dione, reference compound] |  | inhibited | inhibited | inhibited | reduced subretinal fibrosis volume
